From patent US20100215696A1, “E[…] C VIRUS MUTANT, A HEPTITIS C VIRUS MUTANT […] GENE, A METHOD OF PREPARING OF HCV VACCINE USING THE SAME AND A METHOD OF SCREENING ANTI HCV COMPOSITION USING THE SAME” (priority 2007, published 2010)

System: JFH 5a-GFP
Assay: Real time assessment of anti-viral activity in individual JFH 5a-GFP infected Huh 7.5.1 cells (time-lapse confocal GFP fluorescence)
Type: cell-based, hepatitis C virus
Conditions: 1000 IU/ml IFN-α, monitored every 12 hours up to 60 hours, FIGS. 13-16
Description: Huh 7.5.1 cells were infected with culture supernatant obtained from the transformant transfected with JFH 5a-GFP RNA (the transformant was transformed with the introduction of JFH 5a-GFP RNA via electroporation into Huh 7.5.1 cells, in Example 2-1).
After treating or mock-treating (i.e., no IFN-α treated) the transformant with IFN-α, GFP fluorescence was monitored every 12 hours up to 60 hours by using time-lapse confocal microscopy (Zeiss LSM 5 Live). For time-lapse imaging, coverslips were mounted onto the microscope stage, which was equipped with a temperature- and gas-controlled chamber (Chamide IC, Live Cell Instrument, Korea).
In addition, quantitative analyses of the fluorescence images of 8 cells were made by using MetaMorph software. The grouping of the figures was made depending on whether the cell was treated with IFN-α.
FIGS. 10 and 14 are graphs showing changing fluorescence levels in 8 transformants, in absolute values. FIGS. 11 and 15 are graphs showing changing fluorescence levels over time in 8 transformants, in relative values against the starting value, i.e., the value given to the transformants with no IFN-α treated.

Interferon-alpha [IFN-α]
5a-GFP fluorescence intensities over time in 8 transformants: seven among eight transformants showed decreasing fluorescence intensities over time
